These results are taken from patent publication US11919902B2, “Aryl-bipyridine amine derivatives as phosphatidylinositol phosphate kinase inhibitors” (HiberCell, Inc., priority 2017, dated 2024).

Structures are written as SMILES.

One assay has as its target T1, GST tagged PIP4KtypeIIA (Homo sapiens, UniProt P48426).
T1 construct: made in house; host or cells: E. coli
T1 sequence (P48426 1-406): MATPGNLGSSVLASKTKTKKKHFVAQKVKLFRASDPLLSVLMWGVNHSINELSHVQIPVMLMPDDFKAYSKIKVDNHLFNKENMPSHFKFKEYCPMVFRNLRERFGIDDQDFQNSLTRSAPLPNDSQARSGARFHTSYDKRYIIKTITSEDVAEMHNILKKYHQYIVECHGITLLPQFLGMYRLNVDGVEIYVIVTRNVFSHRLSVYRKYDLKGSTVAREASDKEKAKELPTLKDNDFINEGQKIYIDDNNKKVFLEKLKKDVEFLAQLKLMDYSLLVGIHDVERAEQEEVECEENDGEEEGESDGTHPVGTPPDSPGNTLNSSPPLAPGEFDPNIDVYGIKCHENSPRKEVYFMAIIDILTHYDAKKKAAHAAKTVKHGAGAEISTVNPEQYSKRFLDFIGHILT
Briefly: ADP-glo kinase assay PIP4K 2A (PIP4KtypeIIA inhibition assay). In kind it is biochemical. The conditions noted are these: Table 3; compounds listed under IC50 range headings; 10 uM ATP, 0.5 nM PIP4KIIA. The procedure, abridged:
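Read-out was ADP-Glo luminescence converted to μM ADP, with IC50 plotted as % of no-inhibitor activity against log concentration. Reactions contained 10 μM ATP, 80 μM PI5P with DOPE carrier, and 0.5 nM GST-tagged PIP4KIIA (E. coli-expressed) in pH 7.3 HEPES/MgCl2 buffer with 5% DMSO. Enzyme and compound (≤4.8 μM) were preincubated 1 h at 27 °C before the 1 h reaction.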

Assay [1] concerns the target T2, PIP4K2A (full length protein, SignalChem) (Homo sapiens, UniProt P48426).
T2 construct: 4 nM PIP4K2A (full length protein, SignalChem); purchased SignalChem
T2 sequence (P48426 1-406): T1 sequence (P48426 1-406)
Briefly: Kinase Assay PIP4K2 A (Sprint); ADP-Glo biochemical assay. Conditions: Table 2; compounds listed under IC50 range headings. The procedure, abridged: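 ADP-Glo luminescence detected ADP after a 1 h RT reaction started with 60 μM ATP solution. Before that, full-length PIP4K2A (4 nM in mix) with 100 μM PI(5)P diC8 was pre-incubated 15 min with compounds in MOPS buffer pH 7.2, 25 mM MgCl2, 0.005% Tween 20. IC50 derived from % inhibition relative to DMSO over 10 three-fold concentrations.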

A further assay has as its target T3, GST tagged PIP4KtypeIIB (Homo sapiens, UniProt P78356).
T3 construct: made in house; host or cells: E. coli
T3 sequence (P78356 1-416): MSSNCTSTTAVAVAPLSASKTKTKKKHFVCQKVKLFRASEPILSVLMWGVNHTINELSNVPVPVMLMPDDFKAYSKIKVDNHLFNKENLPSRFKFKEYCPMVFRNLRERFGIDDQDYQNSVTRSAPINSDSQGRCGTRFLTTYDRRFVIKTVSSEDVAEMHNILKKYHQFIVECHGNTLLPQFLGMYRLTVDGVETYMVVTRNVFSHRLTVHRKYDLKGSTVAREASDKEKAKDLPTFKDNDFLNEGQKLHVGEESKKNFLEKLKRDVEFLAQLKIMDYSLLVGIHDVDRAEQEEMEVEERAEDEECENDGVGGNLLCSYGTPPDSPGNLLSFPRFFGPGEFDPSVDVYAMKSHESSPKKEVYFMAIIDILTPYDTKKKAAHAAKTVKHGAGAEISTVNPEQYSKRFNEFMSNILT
Briefly: Trans-FI P kinase assay PIP4K2B (PIP4KtypeIIB inhibition assay). The conditions noted are these: Table 4; compounds listed under IC50 range headings; 100 uM GTP, 5 nM PIP4KIIB; read-out: Trans-FI P kinase assays: PIP4K2B IC50. In kind it is biochemical. Put shortly: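 Transcreener FI fluorescence, converted to GDP by calibration, tracked product from 5 nM E. coli-expressed GST-PIP4KIIB acting on 80 uM PI5P (DOPE carrier) with 100 uM GTP. Compound (top 4.8 uM final, 5% DMSO) was preincubated 1 h at 27 C before the 2 h reaction; IC50 fitted from residual activity.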

Consider `O=C1CCCN1c1ccc(-c2cncc(-c3c(OC4CCCNC4)cnc4[nH]ccc34)c2)cc1` (stereo not drawn) [Example 66, 1-(4-(5-(5-(piperidin-3-yloxy)-1H-pyrrolo[2,3-b]pyridin-4-yl)pyridin-3-yl)phenyl)pyrrolidin-2-one], for which the values for the half-inhibitory concentration (IC50) (on GST tagged PIP4KtypeIIA; in assay [1]; on GST tagged PIP4KtypeIIB) were greater than 5 µM, less than 5 µM and greater than 5 µM, respectively.
In the case of `O=C(NCC1CC1)c1cc2c(-c3cncc(-c4ccc(N5CCCC5=O)cc4)c3)ccnc2o1` [Example 79, N-(cyclopropylmethyl)-4-(5-(4-(2-oxopyrrolidin-1-yl)phenyl)pyridin-3-yl)furo[2,3-b]pyridine-2-carboxamide], the IC50 at GST tagged PIP4KtypeIIA lay in the range of 0.01 to 0.1 µM; in assay [1] it was 0.005 to 0.1 µM; on GST tagged PIP4KtypeIIB, 0.01 to 0.1 µM.
Consider `CC(C)CNC(=O)c1cc2c(-c3cnc(N)c(-c4ccc(C(=O)N(C)C)cn4)c3)ccnc2[nH]1` [Example 131, 4-(2′-amino-5-(dimethylcarbamoyl)-[2,3′-bipyridin]-5′-yl)-N-isobutyl-1H-pyrrolo[2,3-b]pyridine-2-carboxamide], for which the IC50 is 0.1 to 1 µM against GST tagged PIP4KtypeIIA, 0.1 to 1 µM in assay [1] and 0.01 to 0.1 µM at GST tagged PIP4KtypeIIB.
Turning to `CN(C)C(=O)c1ccc(-c2cc(-c3ccnc4cc(C#N)ccc34)cnc2N)nc1` [Example 109, 2′-amino-5′-(7-cyanoquinolin-4-yl)-N,N-dimethyl-[2,3′-bipyridine]-5-carboxamide], the IC50 fell in the range of 2.5 to 5 µM against GST tagged PIP4KtypeIIA, 1 to 2.5 µM in assay [1] and 1 to 2.5 µM at GST tagged PIP4KtypeIIB.
For `Nc1ncc(-c2ccnc3c2cc2n3CCN(CC3CC3)C2=O)cc1-c1ccc(N2CCCC2=O)cc1` [Example 88, 4-(6-amino-5-(4-(2-oxopyrrolidin-1-yl)phenyl)pyridin-3-yl)-7-(cyclopropylmethyl)-8,9-dihydropyrido[3′,2′:4,5]pyrrolo[1,2-a]pyrazin-6(7H)-one], the IC50 is 0.01 to 0.1 µM against GST tagged PIP4KtypeIIA, 0.005 to 0.1 µM in assay [1] and 0.001 to 0.01 µM on GST tagged PIP4KtypeIIB.
`O=C(O)c1cc2c(-c3cncc(-c4ccc(N5CCCC5=O)cc4)c3)ccnc2[nH]1` [Example 163, 4-(5-(4-(2-oxopyrrolidin-1-yl)phenyl)pyridin-3-yl)-1H-pyrrolo[2,3-b]pyridine-2-carboxylic acid]: the figures for the half-maximal inhibitory concentration (IC50) (on GST tagged PIP4KtypeIIA; in assay [1]; at GST tagged PIP4KtypeIIB) were 0.1 to 1 µM, 0.005 to 0.1 µM and 0.01 to 0.1 µM, respectively.
As to `Cn1ncc2c(-c3cncc(-c4ccc(N5CCCC5=O)cc4)c3)c[nH]c(=O)c21` [Example 158, 1-methyl-4-(5-(4-(2-oxopyrrolidin-1-yl)phenyl)pyridin-3-yl)-1,6-dihydro-7H-pyrazolo[3,4-c]pyridin-7-one], the figures for the half-inhibitory concentration (IC50) (on GST tagged PIP4KtypeIIA; in assay [1]; at GST tagged PIP4KtypeIIB) were 0.1 to 1 µM, 0.005 to 0.1 µM and 0.1 to 1 µM, respectively.
Turning to `CC(O)c1cnc2[nH]cc(-c3cncc(-c4ccc(C(=O)N(C)C)cc4)c3)c2c1` (stereo not drawn) [Example 15, 4-(5-(5-(1-hydroxyethyl)-1H-pyrrolo[2,3-b]pyridin-3-yl)pyridin-3-yl)-N,N-dimethylbenzamide], the half-inhibitory concentration (IC50) at GST tagged PIP4KtypeIIA lay in the range of 0.1 to 1 µM; in assay [1], 0.005 to 0.1 µM; on GST tagged PIP4KtypeIIB, 0.1 to 1 µM.
On to `CN(C)C(=O)c1ccc(-c2cc(-c3cccnc3N)cnc2N)nc1` [Example 120, 2′,2″-diamino-N,N-dimethyl-[2,3′:5′,3″-terpyridine]-5-carboxamide], for which the values for the IC50 (on GST tagged PIP4KtypeIIA; in assay [1]; at GST tagged PIP4KtypeIIB) were greater than 5 µM, less than 5 µM and greater than 5 µM, respectively.
In the case of `O=C1CCCN1c1ccc(-c2cncc(-c3cn(CC4CCOCC4)c(=O)c4[nH]ncc34)c2)cc1` [Example 69, 4-(5-(4-(2-oxopyrrolidin-1-yl)phenyl)pyridin-3-yl)-6-((tetrahydro-2H-pyran-4-yl)methyl)-1,6-dihydro-7H-pyrazolo[3,4-c]pyridin-7-one], the values for the IC50 (at GST tagged PIP4KtypeIIA; in assay [1]; at GST tagged PIP4KtypeIIB) were 1 to 2.5 µM, 0.005 to 0.1 µM and 0.1 to 1 µM, respectively.
For `Cc1cnc2[nH]ccc2c1-c1cncc(-c2ccc(N3CCCC3=O)cc2)c1` [Example 35, 1-(4-(5-(5-methyl-1H-pyrrolo[2,3-b]pyridin-4-yl)pyridin-3-yl)phenyl)pyrrolidin-2-one], the concentration for half-maximal inhibition (IC50) on GST tagged PIP4KtypeIIA fell in the range of 1 to 2.5 µM; in assay [1], 0.1 to 1 µM; at GST tagged PIP4KtypeIIB it was 0.1 to 1 µM.
Regarding `CN(C[C@H]1CC[C@H](N)CC1)C(=O)c1ccc(-c2cncc(-c3ccncc3)c2)cc1` [Example 181, 4-([3,4′-bipyridin]-5-yl)-N-(((1r,4r)-4-aminocyclohexyl)methyl)-N-methylbenzamide], the 50% inhibitory concentration (IC50) is greater than 5 µM against GST tagged PIP4KtypeIIA, less than 5 µM in assay [1] and greater than 5 µM on GST tagged PIP4KtypeIIB.
Take `O=C1CCCN1c1ccc(-c2cncc(-c3ccc(=O)[nH]c3)c2)cc1` [Example 36, 5′-(4-(2-oxopyrrolidin-1-yl)phenyl)-[3,3′-bipyridin]-6(1H)-one]: the half-maximal inhibitory concentration (IC50) on GST tagged PIP4KtypeIIA is greater than 5 µM; in assay [1] it was 1 to 2.5 µM; on GST tagged PIP4KtypeIIB, 2.5 to 5 µM.
As for `CN(C)C(=O)c1ccc(-c2cc(-c3ccnc4[nH]c(C(=O)N5CC(O)C5)cc34)cnc2N)nc1` [Example 129, 2′-amino-5′-(2-(3-hydroxyazetidine-1-carbonyl)-1H-pyrrolo[2,3-b]pyridin-4-yl)-N,N-dimethyl-[2,3′-bipyridine]-5-carboxamide], the half-inhibitory concentration (IC50) (on GST tagged PIP4KtypeIIA; in assay [1]; on GST tagged PIP4KtypeIIB) was 0.1 to 1 µM throughout.
`Cn1cc(-c2cncc(-c3ccc(N4CCCC4=O)cc3)c2)c2cc(N3CCNCC3)cnc21` [Example 56, 1-(4-(5-(1-methyl-5-(piperazin-1-yl)-1H-pyrrolo[2,3-b]pyridin-3-yl)pyridin-3-yl)phenyl)pyrrolidin-2-one]: the half-inhibitory concentration (IC50) was in the range of 1 to 2.5 µM against GST tagged PIP4KtypeIIA, 0.1 to 1 µM in assay [1] and 2.5 to 5 µM on GST tagged PIP4KtypeIIB.
Take `CN(C)C(=O)c1ccc(-c2cc(-c3ccnc4[nH]c(C(=O)N5CCNCC5)cc34)cnc2N)nc1` [Example 140, 2′-amino-N,N-dimethyl-5′-(2-(piperazine-1-carbonyl)-1H-pyrrolo[2,3-b]pyridin-4-yl)-[2,3′-bipyridine]-5-carboxamide]: the IC50 (on GST tagged PIP4KtypeIIA; in assay [1]; on GST tagged PIP4KtypeIIB) was 0.1 to 1 µM in each case.
As for `O=C1CCCN1c1ccc(-c2cncc(-c3ccncc3)c2)cc1` [Example 41, 1-[4-[5-(4-Pyridyl)-3-pyridyl]phenyl]pyrrolidin-2-one], the 50% inhibitory concentration (IC50) at GST tagged PIP4KtypeIIA is greater than 5 µM; in assay [1], 1 to 2.5 µM; at GST tagged PIP4KtypeIIB, greater than 5 µM.
`CN(C)C(=O)c1ccc(-c2cncc(-c3ccnc4c3ccn4C)c2)cc1` [Example 5, N,N-dimethyl-4-(5-(1-methyl-1H-pyrrolo[2,3-b]pyridin-4-yl)pyridin-3-yl)benzamide]: the IC50 lay in the range of 2.5 to 5 µM against GST tagged PIP4KtypeIIA, 0.1 to 1 µM in assay [1] and 1 to 2.5 µM at GST tagged PIP4KtypeIIB.
As for `O=C1NCCn2c1cc1c(-c3cncc(-c4ccc(N5CCCC5=O)cc4)c3)ccnc12` [Example 45, 4-(5-(4-(2-oxopyrrolidin-1-yl)phenyl)pyridin-3-yl)-8,9-dihydropyrido[3′,2′:4,5]pyrrolo[1,2-a]pyrazin-6(7H)-one], the half-inhibitory concentration (IC50) against GST tagged PIP4KtypeIIA is 0.1 to 1 µM; in assay [1], 0.005 to 0.1 µM; on GST tagged PIP4KtypeIIB, 0.01 to 0.1 µM.
Regarding `CN(C)C(=O)c1ccc(-c2cc(-c3cnc4c(c3)c(-c3cccnc3)nn4C)cnc2N)nc1` [Example 123, 2′-amino-N,N-dimethyl-5′-(1-methyl-3-(pyridin-3-yl)-1H-pyrazolo[3,4-b]pyridin-5-yl)-[2,3′-bipyridine]-5-carboxamide], the results for the 50% inhibitory concentration (IC50) (against GST tagged PIP4KtypeIIA; in assay [1]; at GST tagged PIP4KtypeIIB) were 1 to 2.5 µM, 0.1 to 1 µM and greater than 5 µM, respectively.
For the molecule `Cn1cc2c(-c3cncc(-c4ccc(N5CCCC5=O)cc4)c3)c[nH]c(=O)c2n1` [Example 159, 2-methyl-4-(5-(4-(2-oxopyrrolidin-1-yl)phenyl)pyridin-3-yl)-2,6-dihydro-7H-pyrazolo[3,4-c]pyridin-7-one], the values for the IC50 (against GST tagged PIP4KtypeIIA; in assay [1]; at GST tagged PIP4KtypeIIB) were 0.1 to 1 µM, 0.005 to 0.1 µM and 0.1 to 1 µM, respectively.
